Experimental data: the NIST ThermoML archive (doi:10.1016/j.jct.2016.03.030)
± gives the expanded uncertainty stated by the source.

Experiment: molar heat capacity at constant pressure; xn = mol fraction of the nth substance listed
Conditions: 100 kPa, Liquid, Small sample (50 mg) DSC

CCC[N+]1(C)CCOCC1.[Br-] [4-methyl-4-propylmorpholinium bromide] + O
molar heat capacity at constant pressure [J/K/mol]
Conditions	298.15 K	303.15 K	308.15 K	313.15 K	318.15 K	323.15 K	328.15 K	333.15 K	338.15 K	343.15 K
x1 = 0.0336	82.58 ± 8.3	82.9 ± 8.4	83.23 ± 8.4	83.53 ± 8.4	83.78 ± 8.5	84.05 ± 8.5	84.28 ± 8.5	84.5 ± 8.5	84.72 ± 8.6	84.95 ± 8.6
x1 = 0.0618	89.62 ± 9	89.92 ± 9.1	90.54 ± 9.1	91.03 ± 9.2	91.49 ± 9.2	92.05 ± 9.3	92.45 ± 9.3	92.91 ± 9.4	93.25 ± 9.4	93.65 ± 9.5
x1 = 0.1298	107.63 ± 11	108.21 ± 11	109.1 ± 11	110 ± 11	110.81 ± 11	111.61 ± 11	112.42 ± 11	113.09 ± 11	113.81 ± 12	114.43 ± 12
x1 = 0.2036	125.06 ± 13	125.72 ± 13	126.8 ± 13	127.7 ± 13	128.6 ± 13	129.5 ± 13	130.16 ± 13	130.58 ± 13	130.94 ± 13	131.12 ± 13
x1 = 0.2742	132.6 ± 13	133.19 ± 13	134.31 ± 14	135.28 ± 14	136.1 ± 14	137.14 ± 14	137.89 ± 14	138.56 ± 14	139.23 ± 14	140.05 ± 14
x1 = 0.3025	146.99 ± 15	147.64 ± 15	148.84 ± 15	149.81 ± 15	150.85 ± 15	151.81 ± 15	152.7 ± 15	153.5 ± 16	154.39 ± 16	155.03 ± 16
